Tests used:
[1] = 40℃, 75% relative humidity; cited from earlier work
[2] = Optical purity (chiral HPLC) after storage for 4 weeks at 60℃, 75% relative humidity, exposed or sealed; assay type: physicochemical
[3] = by moisture in additives when formulated with usual excipients and binders; cited from earlier work

Compound | formation of (R)-isomer and degradation products [1] | optical purity after 4 weeks, exposed state ([2]; exposed) | optical purity after 4 weeks ([2]; exposed or sealed) | optical purity after 4 weeks, sealed state ([2]; sealed) | racemization to the (R)-isomer [3]
O=C(O)CCCN1CCC(O[C@@H](c2ccc(Cl)cc2)c2ccccn2)CC1.O=S(=O)(O)c1ccccc1 [(S)-베포타스틴 벤젠술폰산염] | (R)-배열의 이성체 및 분해물이 생성된다 |  |  |  | 
O=C(O)CCCN1CCC(O[C@@H](c2ccc(Cl)cc2)c2ccccn2)CC1 [유상의 (S)-베포타스틴] |  | 95.56% | 95.5~97.4% | 97.32% | (R)-배열의 이성체로 라세미화가 일어나
